Test results as given in ChEMBL document CHEMBL4229446, “Development of Novel Monoamine Oxidase-B (MAO-B) Inhibitors with Reduced Blood-Brain Barrier Permeability for the Potential Management of Noncentral Nervous System (CNS) Diseases” (J Med Chem, 2018).
pIC50: −log10 of the molar value.

Assays:
[1] = biological target: T1, Amine oxidase [flavin-containing] B (Homo sapiens, UniProt P27338); assay: Inhibition of human recombinant MAO-B expressed in baculovirus infected BTI-TN-5B1-4 insect cells using benzylamine as substrate preincubated for 1 hr followed by substrate addition and measured after 30 mins by resazurin dye-based fluorescence assay; type: cell-based
T1 sequence (P27338 whole entry): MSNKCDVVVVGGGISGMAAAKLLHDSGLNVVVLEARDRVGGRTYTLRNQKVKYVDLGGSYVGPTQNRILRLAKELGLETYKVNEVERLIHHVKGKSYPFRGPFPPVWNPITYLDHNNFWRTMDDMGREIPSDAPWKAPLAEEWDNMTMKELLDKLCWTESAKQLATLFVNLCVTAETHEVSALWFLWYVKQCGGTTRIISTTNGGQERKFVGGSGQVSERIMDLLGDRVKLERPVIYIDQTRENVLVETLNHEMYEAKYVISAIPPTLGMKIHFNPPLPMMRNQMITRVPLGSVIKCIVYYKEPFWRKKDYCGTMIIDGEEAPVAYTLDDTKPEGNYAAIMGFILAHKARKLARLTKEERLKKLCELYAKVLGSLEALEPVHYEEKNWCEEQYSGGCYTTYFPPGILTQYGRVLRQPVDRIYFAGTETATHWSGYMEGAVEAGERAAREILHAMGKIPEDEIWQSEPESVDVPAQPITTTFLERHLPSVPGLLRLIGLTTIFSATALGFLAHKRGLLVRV

[2] = biological target: T2, Amine oxidase [flavin-containing] A (Homo sapiens, UniProt P21397); assay: Inhibition of human recombinant MAO-A expressed in baculovirus infected BTI-TN-5B1-4 insect cells using tyramine as substrate preincubated for 1 hr followed by substrate addition and measured after 30 mins by resazurin dye-based fluorescence assay
T2 sequence (P21397 whole entry): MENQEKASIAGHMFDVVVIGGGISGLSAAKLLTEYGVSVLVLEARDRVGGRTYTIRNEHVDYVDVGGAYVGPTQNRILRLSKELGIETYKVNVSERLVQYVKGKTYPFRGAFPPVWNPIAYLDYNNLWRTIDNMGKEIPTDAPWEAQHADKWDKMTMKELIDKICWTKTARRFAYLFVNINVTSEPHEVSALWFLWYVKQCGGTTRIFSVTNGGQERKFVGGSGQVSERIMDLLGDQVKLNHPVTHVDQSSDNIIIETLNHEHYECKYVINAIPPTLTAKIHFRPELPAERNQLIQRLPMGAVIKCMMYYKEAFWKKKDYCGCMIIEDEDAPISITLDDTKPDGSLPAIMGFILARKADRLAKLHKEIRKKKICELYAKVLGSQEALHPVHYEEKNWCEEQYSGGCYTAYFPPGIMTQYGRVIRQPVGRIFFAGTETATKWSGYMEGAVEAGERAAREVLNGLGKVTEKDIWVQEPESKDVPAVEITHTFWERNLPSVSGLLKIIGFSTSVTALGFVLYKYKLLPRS

Row | Structure (SMILES) | pIC50 [1] | pIC50 [2]
1 | C[C@H](Cc1ccc(OCc2cccnc2)cc1)N(C)CC(=O)O | < 4.30 | < 4.30
2 | COC(=O)[C@H](Cc1ccc(OCc2ccccc2)cc1)N(C)CC(=O)O | 5.10 | < 4.30
3 | COC(=O)[C@H](Cc1ccc(OCc2cccc(Cl)c2)cc1)N(C)CC(=O)O | 5.90 | < 4.30
4 | C[C@H](Cc1ccc(OCc2ccc3ccccc3c2)cc1)N(C)CC(=O)O | 4.85 | –
5 | C[C@H](Cc1ccc(OCc2cccc(C#N)c2)cc1)N(C)CC(=O)O | 4.67 | < 4.30
6 | COC(=O)c1ccc(COc2ccc(C[C@@H](C)N(C)CC(=O)O)cc2)cc1 | – | < 4.30
7 | C[C@H](Cc1ccc(OCc2cccc(F)c2)cc1)N(C)CC(=O)O | 6.06 | < 4.30
8 | C[C@H](Cc1ccc(OCc2ccncc2)cc1)N(C)CC(=O)O | 4.66 | < 4.30
9 | C[C@H](Cc1ccc(OCc2ccc(Cl)cc2)cc1)N(C)CC(=O)O | 6.06 | 3.66
10 | COc1cccc(COc2ccc(C[C@@H](C)N(C)CC(=O)O)cc2)c1 | 5.68 | –
11 | CN(CC(=O)O)[C@H](COCc1ccccc1)Cc1ccc(OCc2ccccc2)cc1 | 5.10 | < 4.30
12 | C#CCN(C)[C@H](C)Cc1ccc(OCc2ccccc2)cc1 | 8.30 | 6.79
